We go through 31 compounds from patent US11192891B2, “Diazaspiro ROCK inhibitors” (BRISTOL-MYERS SQUIBB COMPANY, priority 2017, dated 2021).

pEC50, pIC50: −log10 of the molar value.

The target of this assay is ROCK2 (Homo sapiens, UniProt O75116). Briefly: ROCK kinase inhibition assay, FITC peptide substrate, LABCHIP 3000 readout. Type of assay: biochemical. Particulars: 5 μM ATP, 1.5 μM peptide substrate. In a few lines: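 Tested across a concentration range, with percent inhibition of kinase activity derived per concentration. Peptide phosphorylation, initiated by adding the Rho kinase variant (final DMSO <2%), was quenched with EDTA and substrate/product resolved by mobility shift.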
ROCK2, sequence (O75116 whole entry, species assumed): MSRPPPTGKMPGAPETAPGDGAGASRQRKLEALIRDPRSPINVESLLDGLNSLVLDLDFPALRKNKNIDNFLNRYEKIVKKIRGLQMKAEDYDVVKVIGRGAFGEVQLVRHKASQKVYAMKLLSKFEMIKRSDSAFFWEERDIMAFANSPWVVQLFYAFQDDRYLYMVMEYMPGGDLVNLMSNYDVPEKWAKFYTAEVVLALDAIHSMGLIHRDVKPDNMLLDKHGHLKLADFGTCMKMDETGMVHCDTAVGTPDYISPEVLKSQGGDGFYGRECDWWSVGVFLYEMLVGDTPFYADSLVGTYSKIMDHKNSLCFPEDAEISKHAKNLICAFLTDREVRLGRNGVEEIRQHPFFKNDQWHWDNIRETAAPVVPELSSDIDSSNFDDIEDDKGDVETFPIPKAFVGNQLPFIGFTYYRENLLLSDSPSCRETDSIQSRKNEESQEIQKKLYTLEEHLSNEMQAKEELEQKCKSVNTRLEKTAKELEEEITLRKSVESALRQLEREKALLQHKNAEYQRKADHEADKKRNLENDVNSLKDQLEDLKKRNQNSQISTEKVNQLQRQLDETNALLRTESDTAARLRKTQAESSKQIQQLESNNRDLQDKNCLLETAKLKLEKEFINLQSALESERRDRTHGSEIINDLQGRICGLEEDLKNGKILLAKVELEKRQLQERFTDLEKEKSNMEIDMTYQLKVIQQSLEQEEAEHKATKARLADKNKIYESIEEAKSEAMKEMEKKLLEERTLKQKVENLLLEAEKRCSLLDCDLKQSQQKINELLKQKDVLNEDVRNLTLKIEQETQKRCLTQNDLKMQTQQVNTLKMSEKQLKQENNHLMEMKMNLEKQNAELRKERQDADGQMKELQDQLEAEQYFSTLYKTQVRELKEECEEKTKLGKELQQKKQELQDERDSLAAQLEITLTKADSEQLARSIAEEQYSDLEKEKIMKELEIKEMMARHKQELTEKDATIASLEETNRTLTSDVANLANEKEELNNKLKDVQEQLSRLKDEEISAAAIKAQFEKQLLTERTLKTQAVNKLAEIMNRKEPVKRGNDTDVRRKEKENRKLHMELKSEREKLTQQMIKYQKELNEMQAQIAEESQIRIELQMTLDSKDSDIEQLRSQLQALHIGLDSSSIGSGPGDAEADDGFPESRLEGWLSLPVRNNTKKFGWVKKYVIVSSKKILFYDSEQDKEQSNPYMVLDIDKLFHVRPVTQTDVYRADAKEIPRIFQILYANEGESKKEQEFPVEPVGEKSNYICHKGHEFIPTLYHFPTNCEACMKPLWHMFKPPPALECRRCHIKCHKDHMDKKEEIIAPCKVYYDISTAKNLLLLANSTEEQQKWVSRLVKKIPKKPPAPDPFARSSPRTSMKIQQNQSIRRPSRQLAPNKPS
On to `Cn1nc(C(=O)N2CCC3(CC2)CCN(c2ccc(-c4cn[nH]c4)cc2)C3=O)c2ccccc21` [Example 6, 8-(1-methyl-1H-indazole-3-carbonyl)-2-[4-(1H-pyrazol-4-yl)phenyl]-2,8-diazaspiro[4.5]decan-1-one], for which the negative logarithm of the IC50 (pIC50) is 6.84.

With `COc1cc(N2CCC3(CCN(C(=O)c4cc5n(n4)CCNC5=O)CC3)C2=O)ccc1-c1cn[nH]c1` [Example 114, 2-[3-methoxy-4-(1H-pyrazol-4-yl)phenyl]-8-{4-oxo-4H,5H,6H,7H-pyrazolo[1,5-a]pyrazine-2-carbonyl}-2,8-diazaspiro[4.5]decan-1-one], the pIC50 was 8.22.

For the compound `COc1cc(N2CCC3(CCN(C(=O)c4ccc(-c5cncnc5)cc4)CC3)C2=O)ccc1-c1cn[nH]c1` [Example 135, 2-[3-methoxy-4-(1H-pyrazol-4-yl)phenyl]-8-[4-(pyrimidin-5-yl)benzoyl]-2,8-diazaspiro[4.5]decan-1-one], the negative-log IC50 (pIC50) was 8.00.

As to `O=C(C1CC1)N1CCC2(CC1)CCN(c1ccc(-c3cn[nH]c3)cc1)C2=O` [Example 7, 8-cyclopropanecarbonyl-2-[4-(1H-pyrazol-4-yl)phenyl]-2,8-diazaspiro[4.5]decan-1-one], the pIC50 was 6.06.

In turn, `COc1cc(N2CCC3(CCN(C(=O)c4cnn5cccnc45)CC3)C2=O)ccc1-c1cn[nH]c1` [Example 198, 2-[3-methoxy-4-(1H-pyrazol-4-yl)phenyl]-8-{pyrazolo[1,5-a]pyrimidine-3-carbonyl}-2,8-diazaspiro[4.5]decan-1-one] showed a pIC50 of 5.97.

Turning to `COc1cc(N2CCC3(CCN(C(=O)C4CCN(c5ccncc5)CC4)CC3)C2=O)ccc1-c1cn[nH]c1` [Example 175, 2-[3-methoxy-4-(1H-pyrazol-4-yl)phenyl]-8-[1-(pyridin-4-yl)piperidine-4-carbonyl]-2,8-diazaspiro[4.5]decan-1-one], the negative logarithm of the IC50 (pIC50) was 6.71.

As to `COc1cc(N2CCC3(CCN(C(=O)c4ccc(N5CCN(CCC(C)C)CC5)cc4)CC3)C2=O)ccc1-c1cn[nH]c1` [Example 238, 2-[3-methoxy-4-(1H-pyrazol-4-yl)phenyl]-8-{4-[4-(3-methylbutyl)piperazin-1-yl]benzoyl}-2,8-diazaspiro[4.5]decan-1-one], the negative logarithm of the IC50 (pIC50) is 8.80.

Regarding `COc1cc(N2CCC3(CCN(C(=O)c4csc(-c5ccccc5)n4)CC3)C2=O)ccc1-c1cn[nH]c1` [Example 84, 2-[3-methoxy-4-(1H-pyrazol-4-yl)phenyl]-8-(2-phenyl-1,3-thiazole-4-carbonyl)-2,8-diazaspiro[4.5]decan-1-one], the pIC50 was 6.86.

As for `COc1cc(N2CCC3(CCN(C(=O)c4ccc(Cl)cc4)CC3)C2=O)ccc1-c1cn[nH]c1` [Example 18, 8-(4-Chlorobenzoyl)-2-[3-methoxy-4-(1H-pyrazol-4-yl)phenyl]-2,8-diazaspiro[4.5]decan-1-one], the pIC50 is 7.21.

`COc1cc(N2CCC3(CCN(C(=O)c4ccc(N5CCN(Cc6cccn6C)CC5)cc4)CC3)C2=O)ccc1-c1cn[nH]c1` [Example 228, 2-[3-methoxy-4-(1H-pyrazol-4-yl)phenyl]-8-(4-{4-[(1-methyl-1H-pyrrol-2-yl)methyl]piperazin-1-yl}benzoyl)-2,8-diazaspiro[4.5]decan-1-one] gave a pIC50 of 9.05.

The compound `COc1cc(N2CCC3(CCN(C(=O)c4ccc5ccn(C)c5c4)CC3)C2=O)ccc1-c1cn[nH]c1` [Example 155, 2-[3-methoxy-4-(1H-pyrazol-4-yl)phenyl]-8-(1-methyl-1H-indole-6-carbonyl)-2,8-diazaspiro[4.5]decan-1-one] gave a negative-log IC50 (pIC50) of 7.40.

Consider `COc1cc(N2CCC3(CCN(C(=O)c4cn5[nH]c(=O)cc5nc4C)CC3)C2=O)ccc1-c1cn[nH]c1` [Example 131, 2-[3-methoxy-4-(1H-pyrazol-4-yl)phenyl]-8-{5-methyl-2-oxo-1H,2H-pyrazolo[1,5-a]pyrimidine-6-carbonyl}-2,8-diazaspiro[4.5]decan-1-one], for which the negative logarithm of the IC50 (pIC50) is 5.68.

`COc1cc(N2CCC3(CCN(C(=O)c4ccc(C(=O)O)cc4)CC3)C2=O)ccc1-c1cn[nH]c1` [Example 25, 4-{2-[3-methoxy-4-(1H-pyrazol-4-yl)phenyl]-1-oxo-2,8-diazaspiro[4.5]decane-8-carbonyl}benzoic acid] gave a pIC50 of 5.84.

On to `COc1cc(N2CCC3(CCN(C(=O)c4ccc(C(=O)NCC5CC5)cc4)CC3)C2=O)ccc1-c1cn[nH]c1` [Example 26, N-(cyclopropylmethyl)-4-{2-[3-methoxy-4-(1H-pyrazol-4-yl)phenyl]-1-oxo-2,8-diazaspiro[4.5]decane-8-carbonyl}benzamide], for which the negative logarithm of the IC50 (pIC50) is 6.92.

`COc1ccc(C(=O)N2CCC3(CC2)CCN(c2ccc(-c4cn[nH]c4)cc2)C3=O)cc1F` [Example 11, 8-(3-fluoro-4-methoxybenzoyl)-2-[4-(1H-pyrazol-4-yl)phenyl]-2,8-diazaspiro[4.5]decan-1-one] gave a pEC50 of 7.80.

The compound `COc1cc(N2CCC3(CCN(C(=O)c4ccc5oc(C)nc5c4)CC3)C2=O)ccc1-c1cn[nH]c1` [Example 119, 2-[3-methoxy-4-(1H-pyrazol-4-yl)phenyl]-8-(2-methyl-1,3-benzoxazole-5-carbonyl)-2,8-diazaspiro[4.5]decan-1-one] had a pIC50 of 7.15.

Compound `COc1cc(N2CCC3(CCN(C(=O)c4ccc(N5CCN(Cc6ccc(N(C)C)cc6)CC5)cc4)CC3)C2=O)ccc1-c1cn[nH]c1` [Example 245, 8-[4-(4-{[4-(dimethylamino)phenyl]methyl}piperazin-1-yl)benzoyl]-2-[3-methoxy-4-(1H-pyrazol-4-yl)phenyl]-2,8-diazaspiro[4.5]decan-1-one] gave a pIC50 of 10.00.

In turn, `COc1cc(N2CCC3(CCN(C(=O)c4ccc(N5CCN(C)CC5)cc4Cl)CC3)C2=O)ccc1-c1cn[nH]c1` [Example 27, 8-[2-chloro-4-(4-methylpiperazin-1-yl)benzoyl]-2-[3-methoxy-4-(1H-pyrazol-4-yl)phenyl]-2,8-diazaspiro[4.5]decan-1-one] gave a pIC50 of 9.10.

For `COc1cc(N2CCC3(CCN(C(=O)c4ccc5nc(C(F)(F)F)cnc5c4)CC3)C2=O)ccc1-c1cn[nH]c1` [Example 138, 2-[3-methoxy-4-(1H-pyrazol-4-yl)phenyl]-8-[2-(trifluoromethyl)quinoxaline-6-carbonyl]-2,8-diazaspiro[4.5]decan-1-one], the negative logarithm of the IC50 (pIC50) was 7.20.

Compound `COc1ccc(C(=O)N2CCC3(CC2)CCN(c2ccc(-c4cn[nH]c4)c(OC)c2)C3=O)c(Br)c1` [Example 161, 8-(2-bromo-4-methoxybenzoyl)-2-[3-methoxy-4-(1H-pyrazol-4-yl)phenyl]-2,8-diazaspiro[4.5]decan-1-one] gave a negative logarithm of the IC50 (pIC50) of 7.77.

For `COc1cc(N2CCC3(CCN(C(=O)c4ccc(NC(C)=O)cc4)CC3)C2=O)ccc1-c1cn[nH]c1` [Example 88, N-(4-{2-[3-methoxy-4-(1H-pyrazol-4-yl)phenyl]-1-oxo-2,8-diazaspiro[4.5]decane-8-carbonyl}phenyl)acetamide], the pIC50 is 7.14.

In the case of `COc1ncc(C(=O)N2CCC3(CC2)CCN(c2ccc(-c4cn[nH]c4)c(OC)c2)C3=O)cn1` [Example 99, 2-[3-methoxy-4-(1H-pyrazol-4-yl)phenyl]-8-(2-methoxypyrimidine-5-carbonyl)-2,8-diazaspiro[4.5]decan-1-one], the negative-log IC50 (pIC50) is 6.33.

The compound `COc1ccc(-c2cc(C(=O)N3CCC4(CC3)CCN(c3ccc(-c5cn[nH]c5)c(OC)c3)C4=O)on2)cc1` [Example 113, 2-[3-methoxy-4-(1H-pyrazol-4-yl)phenyl]-8-[3-(4-methoxyphenyl)-1,2-oxazole-5-carbonyl]-2,8-diazaspiro[4.5]decan-1-one] had a pIC50 of 7.77.

Take `COc1ccc(NC(=O)N2CCC3(CC2)CCN(c2ccc(-c4cn[nH]c4)c(OC)c2)C3=O)cc1` [Example 217, 2-[3-methoxy-4-(1H-pyrazol-4-yl)phenyl]-N-(4-methoxyphenyl)-1-oxo-2,8-diazaspiro[4.5]decane-8-carboxamide]: the pIC50 was 5.61.

For `COc1cc(N2CCC3(CCN(C(=O)c4csnn4)CC3)C2=O)ccc1-c1cn[nH]c1` [Example 77, 2-[3-methoxy-4-(1H-pyrazol-4-yl)phenyl]-8-(1,2,3-thiadiazole-4-carbonyl)-2,8-diazaspiro[4.5]decan-1-one], the pIC50 was 6.34.

On to `COc1cc2cc(C(=O)N3CCC4(CC3)CCN(c3ccc(-c5cn[nH]c5)c(OC)c3)C4=O)n(C)c2cc1OC` [Example 178], for which the pIC50 was 7.85.

In the case of `COc1cc(N2CCC3(CCN(C(=O)c4cc(C)n(C)n4)CC3)C2=O)ccc1-c1cn[nH]c1` [Example 188, 8-(1,5-dimethyl-1H-pyrazole-3-carbonyl)-2-[3-methoxy-4-(1H-pyrazol-4-yl)phenyl]-2,8-diazaspiro[4.5]decan-1-one], the pIC50 is 7.51.

On to `COc1cc(N2CCC3(CCN(C(=O)c4ccc(N5CCOCC5)cc4)CC3)C2=O)ccc1-c1cn[nH]c1` [Example 94, 2-[3-methoxy-4-(1H-pyrazol-4-yl)phenyl]-8-[4-(morpholin-4-yl)benzoyl]-2,8-diazaspiro[4.5]decan-1-one], for which the pIC50 was 8.70.

As to `COc1cc(N2CCC3(CCN(C(=O)c4ccc(N5CCN(CCC(F)(F)F)CC5)cc4)CC3)C2=O)ccc1-c1cn[nH]c1` [Example 240, 2-[3-methoxy-4-(1H-pyrazol-4-yl)phenyl]-8-{4-[4-(3,3,3-trifluoropropyl)piperazin-1-yl]benzoyl}-2,8-diazaspiro[4.5]decan-1-one], the pIC50 is 9.00.

For `COc1cc(N2CCC3(CCN(C(=O)c4ccc(-c5ccc(S(C)(=O)=O)cc5)cc4)CC3)C2=O)ccc1-c1cn[nH]c1` [Example 173, 8-{4′-methanesulfonyl-[1,1′-biphenyl]-4-carbonyl}-2-[3-methoxy-4-(1H-pyrazol-4-yl)phenyl]-2,8-diazaspiro[4.5]decan-1-one], the negative-log IC50 (pIC50) was 8.43.

For the compound `COc1cc(N2CCC3(CCN(C(=O)c4cc(C5CC5)on4)CC3)C2=O)ccc1-c1cn[nH]c1` [Example 100, 8-(5-cyclopropyl-1,2-oxazole-3-carbonyl)-2-[3-methoxy-4-(1H-pyrazol-4-yl)phenyl]-2,8-diazaspiro[4.5]decan-1-one], the negative logarithm of the IC50 (pIC50) is 8.22.

One may read the pIC50 as the negative decadic logarithm of the IC50, by convention in mol/L. A word on the pEC50: it is the EC50 on a negative log10 scale, so that one unit is a factor of ten. A higher pEC50 goes with a small EC50.
